Laboratory results: ChEMBL document CHEMBL1139164, “Optimization of halopemide for phospholipase D2 inhibition” (Bioorg Med Chem Lett, 2007)

Legend:
Phospholipase D2 [1] = target: T1, Phospholipase D2 (Homo sapiens, UniProt O14939); assay: Inhibition of PLD2 at 1 uM
Phospholipase D2 [2] = target: T1, Phospholipase D2
[3] = Clearance in rat at 5 mg/kg, po or 1 mg/kg, iv; type: ADME, organism-based; conditions: in vivo
[4] = Half life in rat at 5 mg/kg, po or 1 mg/kg, iv; type: ADME, organism-based; conditions: in vivo
[5] = Oral bioavailability in rat at 5 mg/kg; type: ADME, organism-based; conditions: in vivo
[6] = Cmax in rat at 5 mg/kg, po or 1 mg/kg, iv; type: ADME, organism-based; conditions: in vivo
Rattus norvegicus = assay: AUC in rat at 5 mg/kg, po or 1 mg/kg, iv; type: ADME, organism-based, Plasma; conditions: in vivo

T1 sequence (O14939 whole entry): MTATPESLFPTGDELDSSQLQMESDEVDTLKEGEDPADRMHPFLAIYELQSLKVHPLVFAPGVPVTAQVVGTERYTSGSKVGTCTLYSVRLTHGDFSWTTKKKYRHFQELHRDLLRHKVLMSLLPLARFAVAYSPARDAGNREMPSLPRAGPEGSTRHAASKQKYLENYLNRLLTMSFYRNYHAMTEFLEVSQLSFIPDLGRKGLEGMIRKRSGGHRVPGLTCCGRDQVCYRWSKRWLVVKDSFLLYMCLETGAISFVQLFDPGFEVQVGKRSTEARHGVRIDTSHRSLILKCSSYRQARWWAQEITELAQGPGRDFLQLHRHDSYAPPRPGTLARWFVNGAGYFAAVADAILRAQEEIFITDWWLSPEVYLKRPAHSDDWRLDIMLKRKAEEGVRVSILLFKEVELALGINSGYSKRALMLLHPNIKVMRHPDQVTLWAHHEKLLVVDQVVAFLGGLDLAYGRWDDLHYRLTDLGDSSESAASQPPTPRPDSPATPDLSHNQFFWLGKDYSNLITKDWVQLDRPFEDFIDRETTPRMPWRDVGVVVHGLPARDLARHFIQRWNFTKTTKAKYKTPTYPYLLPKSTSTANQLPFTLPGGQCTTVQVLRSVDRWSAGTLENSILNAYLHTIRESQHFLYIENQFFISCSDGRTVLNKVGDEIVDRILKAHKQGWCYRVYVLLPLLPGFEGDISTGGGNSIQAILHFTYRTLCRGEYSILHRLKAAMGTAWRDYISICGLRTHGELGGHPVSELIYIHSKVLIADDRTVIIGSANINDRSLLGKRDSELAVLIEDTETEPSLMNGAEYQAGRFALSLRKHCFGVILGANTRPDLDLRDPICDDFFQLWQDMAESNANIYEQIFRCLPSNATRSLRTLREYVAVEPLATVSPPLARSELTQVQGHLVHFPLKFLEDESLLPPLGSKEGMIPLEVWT

CC(C)CC(=O)NCCN1CCC(n2c(=O)[nH]c3ccccc32)CC1
inhibition (Phospholipase D2 [1]): 0%

Cn1c(C(=O)NCCN2CCC(n3c(=O)[nH]c4ccccc43)CC2)cc2ccccc21
inhibition (Phospholipase D2 [1]): 0%

O=C(CCc1ccc(F)cc1)NCCN1CCC(n2c(=O)[nH]c3ccccc32)CC1
inhibition (Phospholipase D2 [1]): 0%

O=C(NCCN1CCC(n2c(=O)[nH]c3ccccc32)CC1)c1ccsc1
IC50 (Phospholipase D2 [2]): 1 µM

O=C(Cc1ccc(F)cc1)NCCN1CCC(n2c(=O)[nH]c3ccccc32)CC1
inhibition (Phospholipase D2 [1]): 0%

O=C(NCCN1CCC(n2c(=O)[nH]c3ccccc32)CC1)c1cc2ccccc2[nH]1
IC50 (Phospholipase D2 [2]): 0.02 µM

O=C(NCCN1CCC(n2c(=O)[nH]c3ccccc32)CC1)c1ccc(F)cc1
IC50 (Phospholipase D2 [2]): 1.41 µM

O=C(NCCN1CCC(n2c(=O)[nH]c3ccccc32)CC1)c1cc2ccccc2s1
IC50 (Phospholipase D2 [2]): 2 µM

CC(C)C(=O)NCCN1CCC(n2c(=O)[nH]c3ccccc32)CC1
inhibition (Phospholipase D2 [1]): 0%

O=C(NCCN1CCC(n2c(=O)[nH]c3ccccc32)CC1)OCc1ccccc1
inhibition (Phospholipase D2 [1]): 0%

O=C(NCCN1CCC(n2c(=O)[nH]c3ccccc32)CC1)c1ccccc1
IC50 (Phospholipase D2 [2]): 1.5 µM

O=C(NCCN1CCC(n2c(=O)[nH]c3ccccc32)CC1)c1cc2cc(F)ccc2[nH]1
clearance [3]: 36.3 mL/min/kg | half-life [4]: 5.57 h | bioavailability [5]: 18.5% | IC50 (Phospholipase D2 [2]): 0.02 µM | Cmax [6]: 363 nM | AUC (Rattus norvegicus): 1.03 uM.hr/L
